Measurements reported in US20220017483A1, “AMINOPYRIDINE COMPOUND, PREPARATION METHOD THEREFOR AND USE THEREOF” (SICHUAN-KELUN-BIOTECH BIOPHARMACEUTICAL CO., LTD, priority 2018, published 2022).
Like-named read-outs stand apart in the source and are kept apart here.

Experiments:
[1] = target: T1, A2a receptor cell membrane (human origin) (Homo sapiens, UniProt P29274); assay: Competitive inhibition constant (Ki) for adenosine A2a receptor, [3H]-CGS-21680 radioligand binding; details: for Ki(A1)/Ki(A2a): selectivity ratio A1 over A2a
T1 construct: purchased PerkinElmer RBHA2AM400UA
Method: A2a receptor cell membrane (human origin): PerkinElmer, RBHA2AM400UA
A2a test buffer: 50 mM Tris-HCl, 10 mM MgCl2, 1 mM EDTA, pH7.4
(§1) The A1 receptor cell membrane was diluted to 0.025 μg/μl with the A1 test buffer and the A2a receptor cell membrane was diluted to 0.05 μg/μl with the A2a test buffer to obtain an A1 receptor cell membrane dilution and an A2a receptor cell membrane dilution.
(§2) The tested compound and CGS15943 were gradiently diluted with DMSO. 1 μl test compound, high-value control (0.5% DMSO), low-value control (1000 nM CGS15943) were added to a 96-well plate, wherein each well was added with 100 μl A1 receptor cell membrane dilution (containing 2.5 μg cell membrane) to obtain an A1 detection plate. Through the same steps, 100 μl A2a receptor cell membrane dilution (containing 5.0 μg cell membrane) was added to each well of a 96-well plate to obtain an A2a detection plate.
The A1 and A2a detection plates were sealed with a tap, and incubated at room temperature for 1 h and 2 h, respectively.
(§3) Unifilter-96 GF/C filter plate was prepared. The Unifilter-96 GF/C filter plate was added with 50 μl 0.3% PEI in each well, and incubated at room temperature for no less than 0.5 h.
(§4) After the incubation, the reaction solutions in the A1 detection plate and the A2a detection plate were transferred to two Unifilter-96 GF/C filter plates. The filter plates were washed with the corresponding pre-cooled washing buffers, then oven dried. After sealing the bottom of the filter plates, 50 μl of Microscint 20 cocktail scintillation fluid was added. After sealing the top of the filter plates, the plates were read in the counter MicroBeta2 Reader.
(§5) Data analysis: The inhibition rate was calculated according to the following formula:
(§6) Inhibition rate %=100−(the signal value of the tested wells−the signal average of the low-value control)/(the signal average of the high-value control−the signal average of the low-value control)*100.
(§7) IC50 was fitted by EXCEL XLfit. The competitive inhibition constant (Ki) was calculated according to the formula: Ki=IC50/(1+the concentration of the isotope-labelled ligands/Kd); Kd is the dissociation constant of the isotope-labeled ligands.

[2] = target: T2, A1 receptor cell membrane (human origin) (Homo sapiens, UniProt P30542); assay: Competitive inhibition constant (Ki) for adenosine A1 receptor, [3H]-DPCPX radioligand binding; details: [3H]-DPCPX 1.0 nM
T2 construct: purchased PerkinElmer ES-010-M400UA
T2 sequence (P30542 1-326): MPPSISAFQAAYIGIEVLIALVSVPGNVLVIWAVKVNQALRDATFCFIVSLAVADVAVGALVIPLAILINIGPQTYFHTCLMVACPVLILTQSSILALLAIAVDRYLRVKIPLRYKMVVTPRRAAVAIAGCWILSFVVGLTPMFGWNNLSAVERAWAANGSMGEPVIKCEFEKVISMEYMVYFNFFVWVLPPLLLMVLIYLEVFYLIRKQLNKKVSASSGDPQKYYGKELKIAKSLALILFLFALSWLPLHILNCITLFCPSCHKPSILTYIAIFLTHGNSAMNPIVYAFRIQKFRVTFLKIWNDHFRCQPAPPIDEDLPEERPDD
Method: Experimental Example 1: Determination of the Competitive Inhibition Constant (Ki) for Adenosine A1 and A2a Receptors
[^3H]-DPCPX: PerkinElmer, NET974250UC
A1 receptor cell membrane (human origin): PerkinElmer, ES-010-M400UA
A1 test buffer: 25 mM HEPES, 5 mM MgCl2, 1 mM CaCl2, 100 mM NaCl, pH7.4
A1 washing buffer: 25 mM HEPES, 5 mM MgCl2, 1 mM CaCl2, 100 mM NaCl, pH7.4
as §1, §2
100 μl of radioisotope-labelled ligand [^3H]-DPCPX (diluted in A1 test buffer, working concentration 1.0 nM) was added to the A1 detection plate, and 100 μl of radioisotope-labelled ligand [^3H]-CGS-21680 (diluted in A2a test buffer, working concentration 6.0 nM) was added to the A2a detection plate. The A1 and A2a detection plates were sealed with a tap, and incubated at room temperature for 1 h and 2 h, respectively.
as §3, §4, §5, §6, §7

[3] = human A2a receptor cell membrane, [3H]-CGS-21680 6.0 nM, read-out: Ki(A2a)

T1 sequence (P29274 whole entry): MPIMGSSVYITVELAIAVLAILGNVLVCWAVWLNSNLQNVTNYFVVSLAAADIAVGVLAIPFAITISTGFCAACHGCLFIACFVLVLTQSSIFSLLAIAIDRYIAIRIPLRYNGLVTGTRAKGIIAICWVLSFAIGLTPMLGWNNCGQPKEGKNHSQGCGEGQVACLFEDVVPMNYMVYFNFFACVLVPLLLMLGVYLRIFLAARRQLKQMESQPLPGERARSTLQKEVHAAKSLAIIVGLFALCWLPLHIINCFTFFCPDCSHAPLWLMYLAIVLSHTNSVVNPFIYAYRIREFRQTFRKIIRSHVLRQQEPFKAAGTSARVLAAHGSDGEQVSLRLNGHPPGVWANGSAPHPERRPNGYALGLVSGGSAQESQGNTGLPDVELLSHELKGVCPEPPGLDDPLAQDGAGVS

## Cc1ncnc2ccc(-c3ccc(N)nc3-c3ccc(F)cc3)cc12 [Compound 1, 6-(4-fluorophenyl)-5-(4-methylquinazolin-6-yl)pyridin-2-amine]
[1]
  Ki(A1)/Ki(A2a): 339.0

## Cc1ncnc2ccc(-c3cc(Br)c(N)nc3-c3ccc(F)cc3)cc12 [Compound 2, 3-bromo-6-(4-fluorophenyl)-5-(4-methylquinazolin-6-yl)pyridin-2-amine]
[1]; [3]
  Ki: 2.6 nM
[1]
  Ki(A1)/Ki(A2a): 112.1
[2]
  Ki: 291 nM

## COC(=O)c1cc(-c2ccc3ncnc(C)c3c2)c(-c2ccc(F)cc2)nc1N [Compound 3, methyl 2-amino-6-(4-fluorophenyl)-5-(4-methylquinazolin-6-yl) nicotinate]
[1]; [3]
  Ki: 4.9 nM
[1]
  Ki(A1)/Ki(A2a): 222.8
[2]
  Ki: 1090 nM

## Cc1ncnc2ccc(-c3cc(C(=O)O)c(N)nc3-c3ccc(F)cc3)cc12 [Compound 4, 2-amino-6-(4-fluorophenyl)-5-(4-methylquinazolin-6-yl)nicotinic acid]
[1]; [3]
  Ki: 25.6 nM
[1]
  Ki(A1)/Ki(A2a): 293.5
[2]
  Ki: 7510 nM

## Cc1ncnc2ccc(-c3cc(C#N)c(N)nc3-c3ccc(F)cc3)cc12 [Compound 5, 2-amino-6-(4-fluorophenyl)-5-(4-methylquinazolin-6-yl) nicotinonitrile]
[1]; [3]
  Ki: 2.1 nM
[1]
  Ki(A1)/Ki(A2a): 325.3
[2]
  Ki: 683 nM

## CNC(=O)c1cc(-c2ccc3ncnc(C)c3c2)c(-c2ccc(F)cc2)nc1N [Compound 7, 2-amino-6-(4-fluorophenyl)-N-methyl-5-(4-methylquinazolin-6-yl) nicotinamide]
[1]; [3]
  Ki: 20.2 nM
[1]
  Ki(A1)/Ki(A2a): 245.0
[2]
  Ki: 4950 nM

## Cc1ncnc2ccc(-c3cc(-c4cnn(C)c4)c(N)nc3-c3ccc(F)cc3)cc12 [Compound 8, 6-(4-fluorophenyl)-3-(1-methyl-1H-pyrazol-4-yl)-5-(4-methylquinazolin-6-yl)pyridin-2-amine]
[1]; [3]
  Ki: 4.8 nM
[1]
  Ki(A1)/Ki(A2a): 148.5
[2]
  Ki: 713 nM

## Cc1ncnc2ccc(-c3cc(-c4nnn[nH]4)c(N)nc3-c3ccc(F)cc3)cc12 [Compound 9, 6-(4-fluorophenyl)-5-(4-methylquinazolin-6-yl)-3-(1H-tetrazol-5-yl) pyridin-2-amine]
[1]; [3]
  Ki: 12.6 nM
[1]
  Ki(A1)/Ki(A2a): 85.3
[2]
  Ki: 1070 nM

## Cc1ncnc2ccc(-c3c(Cl)cc(N)nc3-c3ccc(F)cc3)cc12 [Compound 10, 4-chloro-6-(4-fluorophenyl)-5-(4-methylquinazolin-6-yl)pyridin-2-amine]
[1]; [3]
  Ki: 2 nM
[1]
  Ki(A1)/Ki(A2a): 219.0
[2]
  Ki: 438 nM

## Cc1ncnc2ccc(-c3c(C#N)cc(N)nc3-c3ccc(F)cc3)cc12 [Compound 11, 6-amino-2-(4-fluorophenyl)-3-(4-methylquinazolin-6-yl) isonicotinonitrile]
[1]; [3]
  Ki: 1.4 nM
[1]
  Ki(A1)/Ki(A2a): 146.5
[2]
  Ki: 205 nM

## Cc1ncnc2ccc(-c3cc(C(N)=O)c(N)nc3-c3cc(F)cc(F)c3)cc12 [Compound 12, 2-amino-6-(3,5-difluorophenyl)-5-(4-methylquinazolin-6-yl) nicotinamide]
[1]; [3]
  Ki: 6.8 nM
[1]
  Ki(A1)/Ki(A2a): 54.9
[2]
  Ki: 374 nM

## Cc1ncnc2ccc(-c3cc(C(N)=O)c(N)nc3-c3ccccc3F)cc12 [Compound 13, 2-amino-6-(2-fluorophenyl)-5-(4-methylquinazolin-6-yl) nicotinamide]
[1]; [3]
  Ki: 12.2 nM
[1]
  Ki(A1)/Ki(A2a): 359.0
[2]
  Ki: 4380 nM

## Cc1ncnc2ccc(-c3cc(-c4cnn(CCN(C)C)c4)c(N)nc3-c3ccc(F)cc3)cc12 [Compound 16, 3-(1-(2-(dimethylamino)ethyl)-1H-pyrazol-4-yl)-6-(4-fluorophenyl)-5-(4-methylquinazolin-6-yl)pyridin-2-amine]
[1]; [3]
  Ki: 16.7 nM
[1]
  Ki(A1)/Ki(A2a): 82.6
[2]
  Ki: 1380 nM

## COCCn1cc(-c2cc(-c3ccc4ncnc(C)c4c3)c(-c3ccc(F)cc3)nc2N)cn1 [Compound 17, 6-(4-fluorophenyl)-3-(1-(2-methoxyethyl)-1H-pyrazol-4-yl)-5-(4-methylquinazolin-6-yl)pyridin-2-amine]
[1]
  Ki: 2.3 nM
  Ki(A1)/Ki(A2a): 137.3
[2]
  Ki: 316 nM

## Cc1ccnc2ccc(-c3cc(C(N)=O)c(N)nc3-c3ccc(F)cc3)cc12 [Compound 22, 2-amino-6-(4-fluorophenyl)-5-(4-methylquinolin-6-yl)nicotinamide]
[1]; [3]
  Ki: 1.6 nM
[1]
  Ki(A1)/Ki(A2a): 66.3
[2]
  Ki: 106 nM

## Cc1ncnc2ccc(-c3cc(-n4cc(C(N)=O)cn4)c(N)nc3-c3ccc(F)cc3)cc12 [Compound 24, 1-(2-amino-6-(4-fluorophenyl)-5-(4-methylquinazolin-6-yl)pyridin-3-yl)-1H-pyrazol-4-carboxamide]
[1]; [3]
  Ki: 23.2 nM
[1]
  Ki(A1)/Ki(A2a): 150.0
[2]
  Ki: 3480 nM

## Cc1ncnc2ccc(-c3cc(-c4nnc(C(N)=O)o4)c(N)nc3-c3ccc(F)cc3)cc12 [Compound 25, 5-(2-amino-6-(4-fluorophenyl)-5-(4-methylquinazolin-6-yl)pyridin-3-yl)-1,3,4-oxadiazol-2-carboxamide]
[1]; [3]
  Ki: 2.3 nM
[1]
  Ki(A1)/Ki(A2a): 57.6
[2]
  Ki: 132 nM

## Cc1cc(-c2cc(-n3cc(C(N)=O)cn3)c(N)nc2-c2ccc(F)cc2)cc(Cl)n1 [Compound 26, 1-(6-amino-2′-chloro-2-(4-fluorophenyl)-6′-methyl-[3,4′-bipyridine]-5-yl)-1H-pyrazol-4-carboxamide]
[1]; [3]
  Ki: 104 nM
[2]
  Ki: 4850 nM

## Cc1ccnc2ccc(-c3cc(-c4nnc(C(N)=O)o4)c(N)nc3-c3ccc(F)cc3)cc12 [Compound 29, 5-(2-amino-6-(4-fluorophenyl)-5-(4-methylquinolin-6-yl)pyridin-3-yl)-1,3,4-oxadiazol-2-carboxamide]
[1]; [3]
  Ki: 1.2 nM
[1]
  Ki(A1)/Ki(A2a): 25.0
[2]
  Ki: 30 nM

## Cc1cc(-c2cc(-c3cnn(CCC(N)=O)c3)c(N)nc2-c2ccc(F)cc2)cc(Cl)n1 [Compound 30, 3-(4-(6-amino-2′-chloro-2-(4-fluorophenyl)-6′-methyl-[3,4′-bipyridine]-5-yl)-1H-pyrazol-1-yl)propionamide]
[1]
  Ki: 50.8 nM
  Ki(A1)/Ki(A2a): 38.0
[2]
  Ki: 1930 nM

## Cc1ccnc2ccc(-c3cc(-c4cnn(CCC(N)=O)c4)c(N)nc3-c3ccc(F)cc3)cc12 [Compound 31, 3-(4-(2-amino-6-(4-fluorophenyl)-5-(4-methylquinolin-6-yl)pyridin-3-yl)-1H-pyrazol-1-yl)propionamide]
[1]
  Ki: 1.6 nM
  Ki(A1)/Ki(A2a): 91.0
[2]
  Ki: 146 nM

## NC(=O)c1cc(-c2ccncc2)c(-c2cccc(F)c2)nc1N [Control compound 1, reference compound]
[1]; [3]
  Ki: 138 nM
[1]
  Ki(A1)/Ki(A2a): 0.2
[2]
  Ki: 25.7 nM
